Laboratory results reported in patent publication US11007206B2, “Cyclic boronic acid ester derivatives and therapeutic uses thereof” (Melinta Subsidiary Corp., priority 2012, dated 2021).
Like-named read-outs stand apart in the source and are kept apart here.

What was measured:
[1] = Plasma pharmacokinetics of Compound I and Biapenem alone or in combination after 1.5 hour intravenous infusion in Sprague-Dawley rats (Example 3); format: in vivo; settings: Sprague-Dawley rats; for AUC / clearance / half-life: male, Sprague-Dawley, rat, plasma, iv, 20 mg/kg, 1.5 hour intravenous infusion
Method: Example 3 provides a summary of the pharmacokinetic studies of Compound I alone or in combination with Biapenem following a single intravenous infusion dose in Sprague-Dawley rats. The pharmacokinetics of 20 mg/kg of Compound I, 20 mg/kg of Biapenem, and 20 mg/kg of Compound I in combination with 20 mg/kg of Biapenem after a 1.5 hour intravenous infusion were discussed.
Biapenem power was purchased from Hisun Pharmaceuticals. Compound I was prepared using the method described in the U.S. Publication 2012/0040932 A1. 20 mg of biapenem was dissolved in 0.1 M NaH2PO4 for a basic stock solution. 100 mg of Compound I was dissolved in 30% 1N NaOH to ˜pH 5.0. For animal studies, these stock solutions were further diluted in 0.9% saline to the appropriate concentration.
The specifications for animals used on this study were as follows: • Species: Rat • Strain: Sprague-Dawley • Gender: Male • Source: Charles River (Hollister, Calif.) • Number of Animals: 3 per study • Body Weight Range: 230-280 g at the start of the study
After acclimation, rats (n=3) were administered single 20 mg/kg intravenous infusion doses of Compound I or Biapenem alone or in combination. Doses were infused over 1.5 hours via an indwelling femoral vein cannula. Plasma (˜0.3 mL) samples were collected from each rat at designated time points up to 24 hours. The time points are shown in section 2.9. Blood samples were centrifuged within 5 min of collection at 12000 g for 5 min to obtain plasma. The plasma samples were stored on −80° C. until analyzed.
Compound I standard curves were prepared in rat plasma from 0.1 to 100 μg/mL. 50 μl aliquots of sample were placed in 1.5 mL microcentrifuge tubes. 20 μl of Compound II (10 μg/mL) was added as internal standard to each sample or standard. 20 μl of 30% trichloroacetic acid was then added to each sample or standard. The samples were mixed using a vortex mixer centrifuged for 10 min at 15,000 RPM using a tabletop centrifuge. The supernatant (approx. 120 μl) was removed and added to 100 μl of water in a 96-well plate. The samples were mixed again using a vortex mixer. 10 μl of each sample was injected onto an HPLC-MS for quantification.
The HPLC-MS conditions for Compound I analysis are as follows: • Column: Phenomenex Fusion-RP or equivalent reversed-phase column, 5 um, 50×2 mm. • Flow rate: 0.6 mL/min. • Mobile phase A: 0.1% formic acid in water. • Mobile phase B: 0.1% formic acid in acetonitrile. • Gradient: 5-60% B in 1.5 min. • Mass spectrometer: Negative ion mode with electrospray ionization. • MS/MS: Compound I-Q1-m/e=296, Q3-m/e=234. • Compound II-Q1-m/e=331, Q3-m/e=201.
Biapenem standard curves were prepared in 50% plasma-50% 1M MOPS buffer, pH=7.4 from 1 to 250 ug/mL. 20 uL of sample or standard was added into a 96-well deep well plate. Then 500 uL of 10% water-45% methanol-45% acetonitrile containing 2 ug/mL of meropenem was used as an internal standard. The plate was vortexed for 15 min. at 3,000 RPM. 50 uL of supernatant was removed and added 300 uL of water. 10 uL of samples were injected onto an HPLC-MS system for quantification.
The HPLC-MS conditions for Biaphenem analysis are as follows: • Column: Supelco Discovery HS F5 or equivalent pentafluorophenyl column, 5 um, 50×2.1 mm. • Flow rate: 0.6 mL/min. • Mobile phase A: 0.1% formic acid in water. • Mobile phase B: 0.1% formic acid in acetonitrile. • Gradient: 5-70% B in 1.9 min. • Mass spectrometer: Positive ion mode with electrospray ionization. • MS/MS: Biapenem-Q1-m/e=350.8, Q3-m/e=110.1. • meropenem-Q1-m/e=384.1, Q3-m/e=141.1
Plasma concentrations were fit using a two compartment IV infusion model (WinNonlinVersion 5.3, Pharsight Corp, Mountain View, Calif.).

[2] = test system: P. aeruginosa; assay: Potency of Biapenem with or without Compound I against P. aeruginosa (Example 4); format: cell-based; settings: P. aeruginosa
[3] = Single-dose pharmacokinetics of Compound I, intraperitoneal administration to Swiss-Webster mice (Example 5); format: in vivo; settings: plasma, Mouse; for CL/F: read-out: CL or CL/F (converted)
Method: (§1) Example 5 provides the single-dose pharmacokinetic studies of Compound I inpreclinical species, including intraperitoneal administration to Swiss-Webster mice and intravaneous administration to Sprague-Dawley rats, Beagle dogs, and Cynomologus monkeys.
(§2) Intravaneous doses of Compound I were administered as 30-minute infusions. The pharmacokinetics of Compound I were also studied with coadministration of the carbapenem, Biapenem. Compound I concentrations were determined using an LC-MS detection method.

[4] = Single-dose pharmacokinetics of Compound I, intravenous 30-minute infusion in Sprague-Dawley rats (Example 5); format: in vivo; settings: Rat; for AUC / Cmax / half-life: Sprague-Dawley, in vivo
Method: as §1, §2

[5] = 20 mg/kg Compound I in combination with 20 mg/kg Biapenem

With `O=C(O)C[C@@H]1CC[C@H](NC(=O)Cc2cccs2)B(O)O1` [Compound I] the “Plasma pharmacokinetic parameters, alone versus in combination” value ([1]; single intravenous infusion) was “unchanged”, the AUC [1, 5] was 10400 ± 1150 ng·h/mL and the clearance [1, 5] was 32.5 mL/min/kg. For the same compound, the half-life [1, 5] was 23.4 ± 6.6 min, the AUC ([1]; administered alone) was 11000 ± 860 ng·h/mL and the clearance ([1]; administered alone) was 33 mL/min/kg. The half-life ([1]; administered alone) was 43.2 ± 9 min, the “Enhancement of Biapenem potency by the addition of Compound I” value [2] was “no enhancement” and the AUC ([3]; 5 mg/kg IP) was 3100 ng·h/mL. The Cmax ([3]; 5 mg/kg IP) was 8260 ng/mL, the half-life ([3]; 5 mg/kg IP) was 9.6 min and the CL/F ([3]; 5 mg/kg IP) was 26.8 mL/min/kg. For the same compound, the AUC ([3]; 15 mg/kg IP) was 8300 ng·h/mL, the Cmax ([3]; 15 mg/kg IP) was 19500 ng/mL and the half-life ([3]; 15 mg/kg IP) was 12 min. For the same compound, the CL/F ([3]; 15 mg/kg IP) was 30 mL/min/kg, the AUC ([3]; 50 mg/kg IP) was 31400 ng·h/mL and the Cmax ([3]; 50 mg/kg IP) was 67100 ng/mL. The half-life ([3]; 50 mg/kg IP) was 15 min, the CL/F ([3]; 50 mg/kg IP) was 26.7 mL/min/kg and the “CL or CL/F” value ([4]; 20 mg/kg IV) was 28.3 ± 1 mL/min/kg. The AUC ([4]; 20 mg/kg IV) was 12200 ± 430 ng·h/mL, the Cmax ([4]; 20 mg/kg IV) was 19800 ± 840 ng/mL and the half-life ([4]; 20 mg/kg IV) was 96 ± 10.2 min. For the same compound, the AUC ([4]; 50 mg/kg IV) was 28200 ± 2000 ng·h/mL, the Cmax ([4]; 50 mg/kg IV) was 45900 ± 2000 ng/mL and the half-life ([4]; 50 mg/kg IV) was 270 ± 80.4 min.
